Experimental data reported in US12319699B2, “L-proline sulfonamide derivatives comprising pyrazolo[4,3-e]tetrazolo[4,5-b][1,2,4]triazine system, method of manufacturing thereof, uses thereof and pharmaceutical composition comprising the same” (UNIWERSYTET MEDYCZNY W BIALYMSTOKU, priority 2018, dated 2025).

Columns and labels:
[1] = tested on: HT-29 human colorectal cancer cells; assay: Cytotoxicity, MTT assay (Carmichael's method), cell survival; assay type: cell-based; conditions: HT-29, 24-hour incubation
Procedure: HT-29 human colorectal cancer cells (ATCC HTB-38, Manassas, VA, USA) were cultured in McCoy's 5A medium supplemented with 10% fetal bovine serum (FBS), 2 mM glutamine, 50 U/ml penicillin, 50 μg/ml of streptomycin at 37° C., in atmosphere containing 5% CO2. Subsequently, the cells were counted in a hemocytometer and were transferred in the amount of 1×10^6 cells per well in 1 ml of culture medium from Costar flasks (Sigma, USA) to Nunc 6-well plates (Wiesbaden, Germany). The cells were transferred using calcium-free phosphate buffer with the addition of 0.05% trypsin and 0.02% EDTA. […] Within the subsequent 24 hours the cells covered at least 80% of the surface of each plate well. […]
Cytotoxicity of the examined compounds according to the invention was measured by Carmichael's method (Carmichael J et al, Cancer Res., 1987, 47:943-946) and cell viability was determined using the tetrazolium salt (MT) in MTT assay. […] In a cell lysate prepared in such manner absorbance at 630 nm was measured. The result of absorbance obtained in the control cell cultures was assumed to be 100%. The viability of cells incubated in the presence of the examined compounds was expressed as percentage of the control values. The significance level p was determined by the nonparametric Mann-Whitney U test by means of SigmaStat software. […]

[2] = tested on: AGS human gastric cancer cells; assay: DNA biosynthesis, [3H]-thymidine incorporation; assay type: cell-based; conditions: 24-hour incubation
Procedure: AGS human gastric cancer cells (ATCC CRL-1739, Manassas, VA, USA) were cultured in DMEM (Dulbecco's Modified Eagle's Medium) supplemented with 10% fetal bovine serum (FBS), 2 mM glutamine, 50 U/ml penicillin, 50 μg/ml streptomycin at 37° C., in atmosphere containing 5% CO2. Subsequently, the cells were counted in a hemocytometer and transferred in the amount of […] cells per well in 1 ml of culture medium from Costar flasks (Sigma, USA) to Nunc 6-well plates (Wiesbaden, Germany). The cells were transferred using calcium-free phosphate buffer with the addition of 0.05% trypsin and 0.02% EDTA. […] Within the subsequent 24 hours the cells covered at least 80% of the surface of each plate well. The cells prepared in this manner were incubated with the examined compounds for 24 hours and then used for further experiments.
The effect of the examined compounds according to the invention on the process of DNA biosynthesis was assessed by measuring incorporation of [^3H]-thymidine into DNA of the examined cells. […] After 5 minutes, the cell lysate obtained was transferred to scintillation vials containing 2 ml of scintillation fluid and radioactivity was measured. […] The values from the examined samples were expressed as percentage of the control value. The significance level p was determined by the nonparametric Mann-Whitney U test by means of SigmaStat software. […]

[3] = tested on: HT-29 colorectal cancer cells; assay: Decrease in mitochondrial membrane potential, JC-1 MitoScreen flow cytometry; assay type: cell-based, human; conditions: 24 hours
Procedure: HT-29 human colorectal cancer cells (ATCC HTB-38, Manassas, VA, USA) were cultured in McCoy's 5A medium supplemented with 10% fetal bovine serum (FBS), 2 mM glutamine, 50 U/ml penicillin, 50 μg/ml of streptomycin at 37° C., in atmosphere containing 5% CO2. Subsequently, the cells were counted in a hemocytometer and were transferred in the amount of 1×10^6 cells per well in 1 ml of culture medium from Costar flasks (Sigma, USA) to Nunc 6-well plates (Wiesbaden, Germany). The cells were transferred using calcium-free phosphate buffer with the addition of 0.05% trypsin and 0.02% EDTA. […] Within the subsequent 24 hours the cells covered at least 80% of the surface of each plate well. The cells prepared in this manner were incubated with the examined compounds for 24 hours and then used for further experiments.
For the assessment of changes in mitochondrial potential JC-1 MitoScreen kit (BD Biosciences. USA) was used. DLD-1 and HT-29 cancer cells covering about 80% of the plate surface were incubated with the examined compounds according to the invention at specific concentrations in an incubator at 37° C. in 5% CO2 atmosphere for 24 hours. Both examined compounds according to the invention were used at a concentration of 1.5 μM and 3.0 μM. After the incubation period, the medium was removed, the buffer included in the kit was added and the cells after washing two times were suspended in a mixture of JC-1 dye (5,5′,6,6′-tetrachloro-1,1′,3,3′-tetraethylbenzimidazol carbocyanine iodide) with a buffer at a concentration of 10 μg/ml. Subsequently, the samples were incubated in darkness for 15 minutes, washed with PBS solution and subjected to immediate analysis with the use of BD FacsCanto II flow cytometer; the results were assessed with the use of BD FacsDiva software. In live intact cells JC-1 dye accumulates in mitochondria and forms orange fluorescing aggregates. A decrease in mitochondrial potential ΔΨm is characterized by disintegration of these aggregates and green fluorescence.

| SMILES | IC50 [1] [nM] | IC50 [2] [nM] | decrease of ΔΨm, % of the cell population ([3]; HT-29, 1.5 μM) [%] | decrease of ΔΨm, % of the cell population ([3]; HT-29, 3.0 μM) [%] |
| --- | --- | --- | --- | --- |
| COC(=O)C1CC(O)CN1S(=O)(=O)c1ccc(-n2nc(C)c3nc4nnnn4nc32)cc1 (centres unmarked) [Compound of Formula 3, Methyl 4-hydroxy-1-[4-(7-methyl-5H-pyrazolo[4,3-e]tetrazolo[4,5-b][1,2,4]triazyn-5-yl)phenylsulfonyl]pyrrolidine-2-carboxylate] | 3130 ± 20 | 1050 ± 10 | 26.9 | 81.0 |
| COC(=O)C1CCCN1S(=O)(=O)c1ccc(-n2nc(C)c3nc4nnnn4nc32)cc1 (centres unmarked) [Compound of Formula 2, Methyl 1-[4-(7-methyl-5H-pyrazol[4,3-e]tetrazolo[4,5-b][1,2,4]triazyn-5-yl)phenylsulfonyl]pyrrolidine-2-carboxylate] | 1730 ± 30 | 550 ± 10 | 25.7 | 79.7 |
